Key:
DPP IV = DPP IV (Homo sapiens, UniProt P27487); experiment: Stability against DPP IV enzyme; assay type: in vitro ADME; details: 37° C.; for % degradation of peptidomimetics in 24 h when incubated with DPP-IV enzyme: 2 μM peptidomimetic; for half-life at 2 μM: DPP IV enzyme, pH 7.8, 2 μM peptidomimetic, read-out: half-life (t1/2) when incubated with DPP-IV enzyme
Description: (§1) Reactions were terminated by the addition of TFA/H2O (15 mL, 10% (v/v)). […] The column was equilibrated with TFA/H20, at a flow rate of 1 mL/min.

human glucagon receptor = molecular target: T1, human glucagon receptor (Homo sapiens, UniProt P47871); experiment: In vitro human glucagon antagonist activity (inhibition of cAMP production) in CHO/human glucagon R cells; assay type: cell-based; details: with saturated concentration of glucagon peptide
T1 construct: The full-length cDNA was cloned in pcDNA3.1 (Invitrogen); expressed in transfected cells
T1 sequence (P47871 26-477): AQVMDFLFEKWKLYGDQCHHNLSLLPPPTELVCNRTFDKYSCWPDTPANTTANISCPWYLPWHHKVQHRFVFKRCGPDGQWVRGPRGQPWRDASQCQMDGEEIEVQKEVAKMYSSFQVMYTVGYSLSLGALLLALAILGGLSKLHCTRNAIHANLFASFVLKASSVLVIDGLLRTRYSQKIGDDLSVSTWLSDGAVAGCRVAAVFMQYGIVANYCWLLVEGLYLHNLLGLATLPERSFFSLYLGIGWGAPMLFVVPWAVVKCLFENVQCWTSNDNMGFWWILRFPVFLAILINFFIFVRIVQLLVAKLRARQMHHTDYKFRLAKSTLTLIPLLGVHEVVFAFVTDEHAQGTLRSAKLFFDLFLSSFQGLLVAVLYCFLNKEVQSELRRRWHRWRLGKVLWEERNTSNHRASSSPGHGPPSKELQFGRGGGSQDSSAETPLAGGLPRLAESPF

Human GLP-1 receptor = molecular target: T2, Human GLP-1 receptor (Homo sapiens, UniProt P43220); experiment: In vitro Human GLP-1 R agonist activity (cyclic AMP determination) in CHO/human GLP1R cells; assay type: cell-based
T2 construct: The full-length cDNA was cloned in pcDNA3.1(+); expressed in transfected cells
T2 sequence (P43220 24-463): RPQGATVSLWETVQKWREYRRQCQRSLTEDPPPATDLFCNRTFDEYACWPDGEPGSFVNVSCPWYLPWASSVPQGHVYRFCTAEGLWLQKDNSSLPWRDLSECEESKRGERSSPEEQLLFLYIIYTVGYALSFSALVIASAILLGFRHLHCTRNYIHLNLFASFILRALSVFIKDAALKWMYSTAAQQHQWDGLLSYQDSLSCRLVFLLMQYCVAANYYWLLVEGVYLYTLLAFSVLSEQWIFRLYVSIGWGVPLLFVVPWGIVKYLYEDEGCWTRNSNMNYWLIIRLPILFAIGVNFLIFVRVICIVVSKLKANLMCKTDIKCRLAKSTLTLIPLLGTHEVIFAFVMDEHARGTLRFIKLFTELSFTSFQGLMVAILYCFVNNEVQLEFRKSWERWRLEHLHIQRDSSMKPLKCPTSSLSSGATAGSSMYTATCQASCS

[1] = Stability in simulated intestinal fluid; assay type: in vitro ADME; details: 2 μM peptidomimetic, simulated intestinal fluid pH 7.5, 37° C.; for half-life at 2 μM: read-out: half-life (t1/2) when incubated with simulated intestinal fluid
Description: as §1

[2] = Stability in simulated gastric fluid; assay type: in vitro ADME; details: 2 μM peptidomimetic, simulated gastric fluid pH 1.5, 37° C.; for half-life at 2 μM: read-out: half-life (t1/2) when incubated with simulated gastric fluid
Description: as §1

[3] = Stability in liver microsomes; assay type: in vitro ADME; details: 2 μM peptidomimetic, human liver microsomes, 37° C.; for half-life at 2 μM: pH 7.8, read-out: half-life (t1/2) when incubated with liver microsomes
Description: as §1

[4] = system: RIN5F (Rat Insulinoma) cells; experiment: In vitro glucose-dependent insulin secretion (RIN5F cell assay screening protocol); assay type: cell-based; details: 16.7 mM glucose load
[5] = Stability in human plasma; assay type: in vitro ADME; details: 2 μM peptidomimetic, pooled human plasma, 37° C.; for half-life at 2 μM: pH 7.8, read-out: half-life (t1/2) when incubated with human plasma
Description: as §1

Sequence of DPP IV (P27487 whole entry, species assumed): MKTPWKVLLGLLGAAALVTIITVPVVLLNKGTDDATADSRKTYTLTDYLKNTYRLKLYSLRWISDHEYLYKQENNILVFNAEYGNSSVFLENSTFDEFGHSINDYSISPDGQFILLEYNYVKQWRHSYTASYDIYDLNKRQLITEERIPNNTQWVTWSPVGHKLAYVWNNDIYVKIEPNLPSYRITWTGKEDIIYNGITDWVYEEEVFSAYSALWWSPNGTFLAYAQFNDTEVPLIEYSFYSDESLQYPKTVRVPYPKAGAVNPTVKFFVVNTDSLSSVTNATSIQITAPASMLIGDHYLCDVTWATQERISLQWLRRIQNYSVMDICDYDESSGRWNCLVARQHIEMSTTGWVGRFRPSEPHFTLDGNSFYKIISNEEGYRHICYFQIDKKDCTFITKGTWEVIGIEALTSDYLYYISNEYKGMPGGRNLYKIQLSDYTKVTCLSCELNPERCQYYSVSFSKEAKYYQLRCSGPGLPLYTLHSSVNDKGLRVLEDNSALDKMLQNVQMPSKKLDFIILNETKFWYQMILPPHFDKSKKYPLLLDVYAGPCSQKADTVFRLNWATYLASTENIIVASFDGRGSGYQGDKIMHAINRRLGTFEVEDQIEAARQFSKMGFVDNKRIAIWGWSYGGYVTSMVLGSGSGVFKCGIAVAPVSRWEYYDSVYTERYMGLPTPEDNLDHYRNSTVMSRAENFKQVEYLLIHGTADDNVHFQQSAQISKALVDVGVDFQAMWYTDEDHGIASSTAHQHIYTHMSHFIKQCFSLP

Structure (SMILES) | % degradation of peptidomimetics in 24 h when incubated with DPP-IV enzyme (DPP IV) [%] | Human Glucagon receptor antagonistic activity shown as inhibition of cAMP production of Glucagon peptide (human glucagon receptor; 1 nM test compound) [pmol/ml/μg prt] | Human Glucagon receptor antagonistic activity shown as inhibition of cAMP production of Glucagon peptide (human glucagon receptor; 10 nM test compound) [pmol/ml/μg prt] | Human Glucagon receptor antagonistic activity shown as inhibition of cAMP production of Glucagon peptide (human glucagon receptor; 100 nM test compound) [pmol/ml/μg prt] | Human Glucagon receptor antagonistic activity shown as inhibition of cAMP production of Glucagon peptide (human glucagon receptor; 1 μM test compound) [pmol/ml/μg prt] | Human Glucagon receptor antagonistic activity shown as inhibition of cAMP production of Glucagon peptide (human glucagon receptor; 10 μM test compound) [pmol/ml/μg prt] | Human GLP-1 R activity (cAMP release), % activity with respect to control (Human GLP-1 receptor; 1 nM test compound) [%] | Human GLP-1 R activity (cAMP release), % activity with respect to control (Human GLP-1 receptor; 10 nM test compound) [%] | Human GLP-1 R activity (cAMP release), % activity with respect to control (Human GLP-1 receptor; 100 nM test compound) [%] | Human GLP-1 R activity (cAMP release), % activity with respect to control (Human GLP-1 receptor; 1 μM test compound) [%] | Human GLP-1 R activity (cAMP release), % activity with respect to control (Human GLP-1 receptor; 10 μM test compound) [%] | % degradation of peptidomimetics in 24 h when incubated with simulated intestinal fluid [1] [%] | half-life at 2 μM [1] [h] | % degradation of peptidomimetics in 24 h when incubated with simulated gastric fluid [2] [%] | half-life at 2 μM [2] [h] | % degradation of peptidomimetics in 24 h when incubated with liver microsomes [3] [%] | Insulin secretion ([4]; 0.1 nM test compd.) [pg/µg/h] | Insulin secretion ([4]; 1 nM test compd.) [pg/µg/h] | Insulin secretion ([4]; 10 nM test compd.) [pg/µg/h] | % degradation of peptidomimetics in 24 h when incubated with human plasma [5] [%] | also measured
CCc1cc(OC)ccc1-c1ccc(CC(NC(=O)[C@H](CC(=O)O)NC(=O)[C@H](CO)NC(=O)[C@@H](NC(=O)C(C)(Cc2ccccc2F)NC(=O)[C@@H](NC(=O)CNC(=O)C(CCC#N)NC(=O)C(C)(C)NC(=O)[C@@H](N)Cc2c[nH]cn2)[C@H](C)O)[C@@H](C)O)C(=O)NC(CCCc2ccccc2F)C(N)=O)cc1 (single isomer, unassigned) [compound 112] | 00 | 6 ± 0.01 | 5 ± 0.02 | 2 ± 0.13 | 0 | 0 | 39 ± 0.10 | 81 ± 0.08 | 89 ± 0.09 | 96 ± 0.11 | 99 ± 0.16 | 00 | > 24 | 49 | 4 | 82 | 15.3 ± 0.19 | 21.2 ± 0.11 | 35.5 ± 0.19 | 00 | half-life at 2 μM (DPP IV): > 24 h; half-life at 2 μM [3]: 2 h; half-life at 2 μM [5]: > 24 h
CCc1cc(OC)ccc1-c1ccc(CC(NC(=O)[C@H](CC(=O)O)NC(=O)[C@H](CO)NC(=O)[C@@H](NC(=O)[C@H](Cc2ccccc2)NC(=O)[C@@H](NC(=O)CNC(=O)[C@H](CCC(N)=O)NC(=O)[C@H](CO)NC(=O)[C@@H](N)Cc2c[nH]cn2)[C@@H](C)O)[C@@H](C)O)C(=O)NC(CCCc2ccccc2F)C(N)=O)cc1 (single isomer, unassigned) [compound 45] | 77 | 15 ± 0.11 | 12 ± 0.13 | 8 ± 0.09 | 4 ± 0.01 | 2 ± 0.08 | 51 ± 0.03 | 86 ± 0.40 | 91 ± 0.21 | 99 ± 0.32 | 99 ± 0.21 | 100 | 0.5 | 100 | 0.5 | 100 | 11.8 ± 0.50 | 14.9 ± 0.11 | 27.9 ± 0.31 | 80 | half-life at 2 μM [3]: 0.5 h; half-life (t1/2) when incubated with human plasma [5]: (9) h
CCc1cc(OC)ccc1-c1ccc(CC(NC(=O)[C@H](CC(=O)O)NC(=O)[C@H](CO)NC(=O)[C@@H](NC(=O)[C@H](Cc2ccccc2)NC(=O)[C@@H](NC(=O)CNC(=O)C(CCC#N)NC(=O)C(C)(C)NC(=O)[C@@H](N)Cc2c[nH]cn2)[C@@H](C)O)[C@@H](C)O)C(=O)NC(CCCc2ccccc2)C(N)=O)cc1 (single isomer, unassigned) [compound 29] | 00 | 20 ± 0.06 | 18 ± 0.09 | 16 ± 0.01 | 14 ± 0.03 | 12 ± 0.01 | 96 ± 0.09 | 99 ± 0.07 | 99 ± 0.04 | 99 ± 0.01 | 99 ± 0.08 | 00 | > 24 | 00 | > 24 | 32 | 16.3 ± 0.15 | 22.4 ± 0.21 | 36.2 ± 0.11 | 00 | half-life at 2 μM (DPP IV): > 24 h; half-life (t1/2) when incubated with liver microsomes [3]: (5) h; half-life at 2 μM [5]: > 24 h

From patent US8883963B2 (Cadila Healthcare Limited, priority 2007, dated 2014)
